Structures are written as SMILES. Structures can show the parent of a compound that is named as a salt.

For orientation: IC50 means the concentration at which inhibition is half-maximal.

The assay deals with NLRP3 inflammasome. Put plainly: IL-1β Secretion Assay (NLRP3-dependent IL-1β secretion in PMA-differentiated THP-1 cells, nigericin activation, HTRF). It counts as cell-based. Particulars: Homo sapiens, THP-1, THP-1 cells, 100 ng/mL PMA 24 h, compound 20 h, 2.5 μM Nigericin 3 h; read-out: IC50 IL-1β Inhibition. Put shortly:
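PMA-differentiated THP-1 cells in RPMI with 5% FBS were treated with compounds at 7 concentrations in threefold DMSO dilutions. NLRP3 was activated with nigericin and secreted IL-1β measured by HTRF. IC50 from a logistic fit of percent inhibition versus concentration.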
For the compound `CC(C)(O)CNc1nnc(-c2ccc(C(F)(F)F)cc2C(F)(F)F)c2cccn12` [Compound I-531], the IC50 lay in the range of 0.01 to 0.1 µM.

`OCCN1CCC[C@@H](Nc2nnc(-c3c(O)cc(C4CC4)cc3F)c3ccncc23)C1` [Compound I-284, 5-Cyclopropyl-3-fluoro-2-[4-[[(3R)-1-(2-hydroxyethyl)-3-piperidyl]amino]-pyrido[3,4-d]pyridazin-1-yl]phenol]: the IC50 was less than 0.001 µM.

Take `Cc1ccc(-c2nnc(N[C@@H]3CCCN(C)C3)c3cnccc23)c(C#N)c1` [Compound I-136]: the IC50 was 0.001 to 0.01 µM.

As for `Cc1ccc(-c2nnc(N[C@@H]3CCCN(C)C3)c3c2CCC3)c(OC(F)F)c1` [Compound I-244], the half-inhibitory concentration (IC50) is 0.01 to 0.1 µM.

Regarding `COc1ccc(-c2nnc(N[C@@H]3CCCN(C)C3)c3cnccc23)c(C(F)(F)F)c1` [Compound I-181], the IC50 lay in the range of 0.001 to 0.01 µM.

`CN1CCC[C@@H](Nc2nnc(-c3ncc(Cl)cc3O)c3ccccc23)C1` [Compound I-81, (R)-5-Chloro-2-(4-((1-methylpiperidin-3-yl)amino)phthalazin-1-yl)pyridin-3-ol]: the IC50 lay in the range of 0.01 to 0.1 µM.

Turning to `FC(F)OCCN1CCC[C@@H](Nc2nnc(-c3ccc(C(F)(F)F)cc3C(F)(F)F)c3cccn23)C1` [Compound I-469], the half-inhibitory concentration (IC50) is 0.01 to 0.1 µM.

On to `Cn1cc(CNc2nnc(-c3ccc(C(F)(F)F)cc3O)c3ccncc23)cn1` [Compound I-174], for which the IC50 is 0.01 to 0.1 µM.

For `Cc1ccc(-c2nnc(N[C@@H]3CCCN(C)C3)c3cnccc23)c(O)c1` [Compound I-71, 5-Methyl-2-[4-[[(3R)-1-methyl-3-piperidyl]amino]pyrido[3,4-d]pyridazin-1-yl]phenol], the IC50 is less than 0.001 µM.

Consider `CN1CCC(c2ccc(-c3nnc(N[C@@H]4CCCN(C)C4)c4ccccc34)c(O)c2)C1` (some centres unmarked) [Compound I-107], for which the IC50 was in the range of 0.01 to 0.1 µM.

As to `CC(=O)Nc1cc(C(F)(F)F)ccc1-c1nnc(N[C@@H]2CCCN(C)C2)c2ccccc12` [Compound I-126], the IC50 lay within 0.001 to 0.01 µM.

Regarding `CN1C[C@H](F)C[C@@H](Nc2nnc(-c3c(O)cc(OC(F)F)cc3F)c3cccn23)C1` [Compound I-617], the 50% inhibitory concentration (IC50) was 0.001 to 0.01 µM.

On to `CC(C)Oc1cc(C(F)(F)F)ccc1-c1nnc(N[C@@H]2CCCN(C)C2)c2cnccc12` [Compound I-291], for which the IC50 fell in the range of 0.001 to 0.01 µM.

Consider `Cc1cc(O)c(-c2nnc(N[C@@H]3CCCN(C)C3)n3cccc23)c(F)c1` [Compound I-342, 3-Fluoro-5-methyl-2-[4-[[(3R)-1-methyl-3-piperidyl]amino]pyrrolo[1,2-d][1,2,4]triazin-1-yl]phenol], for which the half-maximal inhibitory concentration (IC50) lay within 0.001 to 0.01 µM.

With `CCc1cc(O)c(-c2nnc(N[C@@H]3CCCN(C)C3)n3cccc23)c(F)c1` [Compound I-563], the IC50 is less than 0.001 µM.

As for `COc1ccc(-c2nnc(N[C@@H]3CCCN(C)C3)n3cccc23)c(O)c1` [Compound I-357], the IC50 is 0.001 to 0.01 µM.

For `COc1nc(C)ccc1-c1nnc(N[C@@H]2CCCN(C)C2)c2ccccc12` [Compound I-160], the half-maximal inhibitory concentration (IC50) is 0.1 to 0.3 µM.

In the case of `CN1CCC[C@@H](Nc2nnc(-c3ccc(Br)cc3OCc3ccccc3)c3ccnn23)C1` [Compound I-545], the IC50 fell in the range of 0.01 to 0.1 µM.

For the compound `CN1CCC[C@@H](Nc2nnc(-c3ccc(C(F)(F)F)cc3O)c3cscc23)C1` [Compound I-250], the IC50 is less than 0.001 µM.

Consider `CN1CCC[C@@H](Nc2nnc(-c3ccc(Cl)cc3C(F)F)c3ccncc23)C1` [Compound I-239], for which the IC50 lay within 0.001 to 0.01 µM.

On to `Cc1cc2c(N[C@@H]3CCCN(C)C3)nnc(-c3ccc(C(F)(F)F)cc3O)n2n1` [Compound I-336], for which the IC50 was in the range of 0.01 to 0.1 µM.

Turning to `CN1CCC[C@@H](Nc2nnc(-c3ccc(C(F)(F)F)cc3O)c3nccn23)C1` [Compound I-398, 2-[5-[[(3R)-1-Methyl-3-piperidyl]amino]imidazo[1,2-d][1,2,4]triazin-8-yl]-5-(trifluoromethyl)phenol formic acid salt], the concentration for half-maximal inhibition (IC50) was more than 0.3 µM.

As to `Cc1cc(O)c(-c2nnc(N[C@@H]3CCCN(C4CCOC4)C3)n3cccc23)c(F)c1` (some centres unmarked) [Compound I-489], the IC50 was 0.001 to 0.01 µM.

As for `CN1CCC[C@@H](Nc2nnc(-c3ccc(C(F)(F)F)cc3NS(C)(=O)=O)c3ccccc23)C1` [Compound I-124], the IC50 fell in the range of 0.001 to 0.01 µM.

For the compound `CN1CCC[C@@H](Nc2nnc(-c3ccc(C(F)(F)F)cc3OC(F)F)c3cc(C4CC4)nn23)C1` [Compound I-346], the IC50 is 0.001 to 0.01 µM.

For `FC(F)Oc1cc(C(F)(F)F)ccc1-c1nnc(NC[C@H]2CCCO2)n2cccc12` [Compound I-611], the IC50 was 0.01 to 0.1 µM.

For the compound `COc1ccc(-c2nnc(N[C@@H]3CCCN(CCO)C3)n3cccc23)c(O)c1` [Compound I-358], the IC50 was 0.001 to 0.01 µM.

In the case of `OCCN1CCC[C@@H](Nc2nnc(-c3ccc(Br)cc3O)c3cccn23)C1` [Compound I-529], the IC50 is 0.001 to 0.01 µM.

Turning to `CN1C[C@H](O)C[C@@H](Nc2nnc(-c3ccc(C(F)(F)F)cc3O)c3ccccc23)C1` [Compound I-84], the IC50 was 0.01 to 0.1 µM.

In the case of `Oc1cc(C(F)(F)F)ccc1-c1nnc(NC[C@@H]2CCCN2)c2cnccc12` [Compound I-111], the IC50 was 0.001 to 0.01 µM.

For `Cc1cc2c(N[C@@H]3CCCNC3)nnc(-c3ccc(C(F)(F)F)cc3O)n2n1` [Compound I-332], the IC50 lay in the range of 0.01 to 0.1 µM.

On to `COc1cc(C(F)(F)F)ccc1-c1nnc(N2CCC(N(C)C)CC2)c2cnccc12` [Compound I-201], for which the IC50 fell in the range of 0.01 to 0.1 µM.

Turning to `CN1CCN(c2nnc(-c3ccc(C(F)(F)F)cc3O)c3cnccc23)CC1` [Compound I-116], the IC50 was 0.1 to 0.3 µM.

For `COc1ccc(-c2nnc(N[C@@H]3CCCN(C)C3)c3cnccc23)c(O)c1` [Compound I-175], the IC50 was less than 0.001 µM.

Consider `CN1C[C@H](F)C[C@@H](Nc2nnc(-c3ccc(C(F)(F)F)cc3O)c3ccncc23)C1` [Compound I-280], for which the IC50 is less than 0.001 µM.

On to `CC(=O)N1CCCC(Nc2nnc(-c3ccc(C(F)(F)F)cc3O)c3ccccc23)C1` (centres unmarked) [Compound I-64], for which the IC50 lay in the range of 0.01 to 0.1 µM.

With `Cc1cc2c(-c3ccc(C(F)(F)F)cc3C(F)(F)F)nnc(N[C@@H]3CCCN(C)C3)n2n1` [Compound I-382], the half-inhibitory concentration (IC50) is 0.001 to 0.01 µM.

In the case of `Oc1cc(Cl)ccc1-c1nnc(N[C@H]2CCOC2)n2cncc12` [Compound I-580], the IC50 lay within 0.001 to 0.01 µM.

In the case of `COc1cc(C(F)(F)F)ccc1-c1nnc(N[C@@H]2CCCN(CCOC(F)F)C2)c2cnccc12` [Compound I-276], the IC50 lay in the range of 0.01 to 0.1 µM.

For `Cc1cc(O)c(-c2nnc(N[C@H]3C[C@@](C)(O)C3)n3cccc23)c(F)c1` [Compound I-466], the IC50 lay within 0.001 to 0.01 µM.

On to `CN(C)C(C)(C)CNc1nnc(-c2ccc(C(F)(F)F)cc2O)c2ccncc12` [Compound I-275], for which the IC50 lay within 0.001 to 0.01 µM.

Turning to `CN1CCC[C@@H](Nc2nnc(-c3ccccc3OC(F)F)c3c2CCC3)C1` [Compound I-245], the IC50 is 0.001 to 0.01 µM.

For `CN1CCCCC(Nc2nnc(-c3ccc(C(F)(F)F)cc3O)c3ccccc23)C1` (centres unmarked) [Compound I-95], the IC50 fell in the range of 0.001 to 0.01 µM.

Regarding `C[C@]1(O)C[C@@H](Nc2nnc(-c3ccc(Br)cc3O)c3ccnn23)C1` [Compound I-544], the IC50 lay within 0.001 to 0.01 µM.

With `CN1CCC[C@@H](Nc2nnc(-c3c(O)cc(C(F)(F)F)cc3F)c3ccncc23)C1` [Compound I-197], the IC50 is less than 0.001 µM.

In the case of `C#Cc1ccc(-c2nnc(N[C@@H]3CCCN(C)C3)c3ccccc23)c(O)c1` [Compound I-226, (R)-5-ethynyl-2-(4-((1-methylpiperidin-3-yl)amino)phthalazin-1-yl)phenol], the IC50 was less than 0.001 µM.

On to `Cc1cc(F)c(-c2nnc(N[C@@H]3CCCN(CCO)C3)n3cccc23)c(OC(F)F)c1` [Compound I-463], for which the IC50 lay in the range of 0.01 to 0.1 µM.

Take `CC(C)N1CCC[C@@H](Nc2nnc(-c3ccc(C(F)(F)F)cc3OC(F)F)c3cccn23)C1` [Compound I-493]: the IC50 fell in the range of 0.001 to 0.01 µM.

For the compound `CC(C)N1CCC[C@@H](Nc2nnc(-c3ccc(C(F)(F)F)cc3C(F)(F)F)c3cccn23)C1` [Compound I-530], the half-inhibitory concentration (IC50) is less than 0.001 µM.

Turning to `CN(C)C1CCC[C@@H](Nc2nnc(-c3c(O)cc(C4CC4)cc3F)c3cccn23)C1` (some centres unmarked) [Compound I-541], the half-maximal inhibitory concentration (IC50) is less than 0.001 µM.

As to `CN1CCC[C@@H](Nc2nnc(-c3c(F)cc(Cl)cc3F)c3ccncc23)C1` [Compound I-221], the IC50 was in the range of 0.001 to 0.01 µM.

For `Cc1cc(O)c(-c2nnc(NC[C@@H](C)O)n3cccc23)c(F)c1` [Compound I-499], the IC50 lay within 0.01 to 0.1 µM.

On to `OCCN1CCC[C@@H](Nc2nnc(-c3ccc(C(F)(F)F)cc3O)c3ccncc23)C1` [Compound I-55], for which the IC50 is less than 0.001 µM.

As for `COc1cc(C(F)(F)F)ccc1-c1nnc(N[C@@H]2CCCN(C)C2)n2cncc12` [Compound I-349, 1-[2-Methoxy-4-(trifluoromethyl)phenyl]-N-[(3R)-1-methyl-3-piperidyl]imidazo[1,5-d][1,2,4]triazin-4-amine], the IC50 lay in the range of 0.001 to 0.01 µM.

With `FC(F)Oc1cc(C(F)(F)F)ccc1-c1nnc(N[C@@H]2CCCCCNC2)n2cccc12` [Compound I-324, 1-[2-(difluoromethoxy)-4-(trifluoromethyl)phenyl]-N-[(3R)-azocan-3-yl]pyrrolo[1,2-d][1,2,4]triazin-4-amine], the IC50 is 0.001 to 0.01 µM.

For the compound `CN1CCC[C@@H](Nc2nnc(-c3ccc(C(F)(F)F)cc3O)c3cncn23)C1` [Compound I-333, 2-[4-[[(3R)-1-Methyl-3-piperidyl]amino]imidazo[1,5-d][1,2,4]triazin-1-yl]-5-(trifluoromethyl)phenol], the IC50 is less than 0.001 µM.

For `CN1CCC[C@@H](Nc2nnc(-c3cnc(C(F)(F)F)cc3O)c3ccccc23)C1` [Compound I-79], the IC50 was 0.01 to 0.1 µM.

`Oc1cc(C(F)(F)F)ccc1-c1nnc(NC2CCCNCC2)c2cnccc12` (centres unmarked) [Compound I-253]: the IC50 lay within 0.001 to 0.01 µM.

With `CN1CCC[C@@H](Nc2nnc(-c3ccc(C(F)(F)F)cc3C3CC3)c3ccncc23)C1` [Compound I-194, (R)-1-(2-Cyclopropyl-4-(trifluoromethyl)phenyl)-N-(1-methylpiperidin-3-yl)pyrido[3,4-d]pyridazin-4-amine], the IC50 fell in the range of 0.001 to 0.01 µM.
